Experimental data published in US12180187B2, “1-phenyl-5-azinylpyrazolyl-3-oxyalkyl acids and their use for controlling unwanted plant growth” (BAYER AKTIENGESELLSCHAFT, priority 2019, dated 2024).

Experiments:
VERPE [1] = experiment: Pre-emergence action against VERPE, 1280 g/ha; type: in vivo, Veronica persica; settings: scored visually after about 3 weeks vs untreated controls (100% = plants have died)
Method in brief: (§1)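 Greenhouse pre-emergence test on sown seeds in sandy loam; soil-surface spray of formulated compound with 0.5% additive at 600 L/ha water. Scored visually, % vs untreated, after about 3 weeks.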

LOLRI [2] = experiment: Post-emergence action against LOLRI, 1.28 kg/ha; type: in vivo, Lolium rigidum; settings: dosage 1280 g/ha, visual rating about 3 weeks after treatment vs untreated controls
Method in brief: (§2)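 Visual rating against untreated plants about 3 weeks after spraying gives % activity, where 0% means like controls and 100% means plants died. Plants were treated post-emergence at the one-leaf stage with compound formulated as wettable powder or emulsion concentrate, applied at 600 L water/ha plus 0.5% additive.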

ECHCG = experiment: Pre-emergence action against ECHCG, 1280 g/ha; type: in vivo, Echinochloa crus-galli; settings: visual scoring after about 3 weeks vs untreated controls, 100% = plants have died, 0% = like control plants
Method in brief: as §1

HORMU = experiment: Post-emergence action at 320 g/ha against HORMU; type: in vivo, Hordeum murinum; settings: visual rating about 3 weeks after treatment vs untreated controls
From the text: Accordingly, the compounds of the invention have good herbicidal action against a broad spectrum of weed grasses and broad-leaved weeds and are therefore suitable for controlling unwanted vegetation by the post-emergence method. • b) Seeds of monocotyledonous and dicotyledonous weeds and crop plants are placed in sandy loam in plastic or organic planting pots, covered with soil and cultivated in a greenhouse under controlled growth conditions. 2 to 3 weeks after sowing, the test plants are treated at the one-leaf stage. The compounds of the invention, formulated in the form of wettable powders (WP) or as emulsion concentrates (EC), are then sprayed onto the green parts of the plants as aqueous suspension or emulsion with addition of 0.5% additive at a water application rate of 600 l/ha (converted). After the test plants have been kept in the greenhouse under optimum growth conditions for about 3 weeks, the activity of the preparations is rated visually in comparison to untreated controls. For example, 100% activity=the plants have died, 0% activity=like control plants. Tables 39 to 49 below show the effects of selected compounds of the general formula (I) according to Tables 1 and 2 on various harmful plants and at an application rate corresponding to 320 g/ha, which were obtained by the experimental procedure mentioned above.

VIOTR [3] = experiment: Pre-emergence action at 320 g/ha against VIOTR; type: in vivo, Viola tricolor; settings: dosage 320 g/ha
Method in brief: (§3)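 Visual scoring in percent against untreated controls, about 3 weeks after treatment, where 100% means dead plants and 0% means no difference. Compounds were applied as aqueous suspension or emulsion (WP or EC, plus 0.5% additive) onto soil covering freshly sown seeds, at 600 l/ha water.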

SETVI [4] = experiment: Pre-emergence action against SETVI, 1280 g/ha; type: in vivo, Setaria viridis; settings: visual scoring after about 3 weeks vs untreated controls, 100% = plants have died, 0% = like control plants
Method in brief: as §1

SETVI [5] = experiment: Pre-emergence action at 320 g/ha against SETVI; type: in vivo, Setaria viridis; settings: visual scoring after about 3 weeks vs untreated controls
Method in brief: as §3

AMARE [6] = experiment: Post-emergence action against AMARE, 1.28 kg/ha; type: in vivo, Amaranthus retroflexus; settings: dosage 1280 g/ha, visual rating about 3 weeks after treatment vs untreated controls (100% = plants died)
Method in brief: as §2

MATIN [7] = experiment: Pre-emergence action against MATIN, 1280 g/ha; type: in vivo, Tripleurospermum inodorum (Matricaria inodora); settings: scored visually after about 3 weeks vs untreated controls (100% = plants have died)
Method in brief: as §1

AMARE [8] = experiment: Pre-emergence action against AMARE, 1280 g/ha; type: in vivo, Amaranthus retroflexus; settings: scored visually after about 3 weeks vs untreated controls (100% = plants have died)
Method in brief: as §1

SETVI [9] = experiment: Post-emergence action against SETVI, 1.28 kg/ha; type: in vivo, Setaria viridis; settings: dosage 1280 g/ha, visual rating about 3 weeks after treatment vs untreated controls
Method in brief: as §2

ALOMY = experiment: Post-emergence action against ALOMY, 320 g/ha; type: in vivo, Alopecurus myosuroides; settings: dosage 320 g/ha, visual rating about 3 weeks after treatment vs untreated controls (100% = plants died)
Method in brief: (§4)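 Weeds were sown in sandy loam, grown in a greenhouse and sprayed at the one-leaf stage, 2 to 3 weeks after sowing, with WP or EC formulations as aqueous suspension or emulsion plus 0.5% additive at 600 l/ha water. Activity was rated visually after about 3 weeks against untreated controls (100% = plants dead, 0% = like control).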

AMARE [10] = experiment: Pre-emergence action at 320 g/ha against AMARE; type: in vivo, Amaranthus retroflexus; settings: visual scoring after about 3 weeks vs untreated controls
Method in brief: as §3

DIGSA [11] = experiment: Pre-emergence action against DIGSA, 1280 g/ha; type: in vivo, Digitaria sanguinalis; settings: visual scoring after about 3 weeks vs untreated controls, 100% = plants have died, 0% = like control plants
Method in brief: as §1

DIGSA [12] = experiment: Pre-emergence action at 320 g/ha against DIGSA; type: in vivo, Digitaria sanguinalis; settings: visual scoring after about 3 weeks vs untreated controls
Method in brief: as §3

MATIN [13] = experiment: Post-emergence action against MATIN, 1.28 kg/ha; type: in vivo, Tripleurospermum inodorum (Matricaria inodora); settings: dosage 1280 g/ha, visual rating about 3 weeks after treatment vs untreated controls (100% = plants died)
Method in brief: as §2

POAAN [14] = experiment: Post-emergence action against POAAN, 1.28 kg/ha; type: in vivo, Poa annua; settings: dosage 1280 g/ha, visual rating about 3 weeks after treatment vs untreated controls
Method in brief: as §2

LOLRI [15] = experiment: Pre-emergence action against LOLRI, 1280 g/ha; type: in vivo, Lolium rigidum; settings: visual scoring after about 3 weeks vs untreated controls, 100% = plants have died, 0% = like control plants
Method in brief: as §1

ABUTH = experiment: Post-emergence action against ABUTH, 1.28 kg/ha; type: in vivo, Abutilon theophrasti; settings: dosage 1280 g/ha, visual rating about 3 weeks after treatment vs untreated controls (100% = plants died)
Method in brief: as §2

POAAN [16] = experiment: Pre-emergence action against POAAN, 1280 g/ha; type: in vivo, Poa annua; settings: visual scoring after about 3 weeks vs untreated controls, 100% = plants have died, 0% = like control plants
Method in brief: as §1

VIOTR [17] = experiment: Post-emergence action at 320 g/ha against VIOTR; type: in vivo, Viola tricolor; settings: visual rating about 3 weeks after treatment vs untreated controls
Method in brief: as §4

VERPE [18] = experiment: Post-emergence action against VERPE, 1.28 kg/ha; type: in vivo, Veronica persica; settings: dosage 1280 g/ha, visual rating about 3 weeks after treatment vs untreated controls (100% = plants died)
Method in brief: as §2

STEME [19] = experiment: Pre-emergence action against STEME, 1280 g/ha; type: in vivo, Stellaria media; settings: scored visually after about 3 weeks vs untreated controls (100% = plants have died)
Method in brief: as §1

STEME [20] = experiment: Pre-emergence action at 320 g/ha against STEME; type: in vivo, Stellaria media; settings: greenhouse, scored visually after about 3 weeks vs untreated controls, 100% = plants have died, 0% = like control plants
From the text: b) Seeds of monocotyledonous and dicotyledonous weed plants and crop plants are placed in plastic or organic planting pots and covered with soil. The compounds of the invention, formulated in the form of wettable powders (WP) or as emulsion concentrates (EC), are then applied onto the surface of the covering soil as aqueous suspension or emulsion with addition of 0.5% additive at a water application rate of 600 l/ha (converted). After the treatment, the pots are placed in a greenhouse and kept under good growth conditions for the trial plants. After about 3 weeks, the effect of the preparations is scored visually in comparison with untreated controls as percentages. For example, 100% activity=the plants have died, 0% activity=like control plants. Tables 13 to 26 below show the effects of selected compounds of the general formula (I) on various harmful plants and at an application rate corresponding to 320 g/ha, which were obtained by the experimental procedure mentioned above.

STEME [21] = experiment: Post-emergence action against STEME, 1.28 kg/ha; type: in vivo, Stellaria media; settings: dosage 1280 g/ha, visual rating about 3 weeks after treatment vs untreated controls (100% = plants died)
Method in brief: as §2

POLCO [22] = experiment: Post-emergence action at 320 g/ha against POLCO; type: in vivo, Fallopia convolvulus (Polygonum convolvulus); settings: visual rating about 3 weeks after treatment vs untreated controls
Method in brief: as §4

DIGSA [23] = experiment: Post-emergence action against DIGSA, 1.28 kg/ha; type: in vivo, Digitaria sanguinalis; settings: dosage 1280 g/ha, visual rating about 3 weeks after treatment vs untreated controls
Method in brief: as §2

AVEFA = experiment: Post-emergence action at 320 g/ha against AVEFA; type: in vivo; settings: visual rating about 3 weeks after treatment vs untreated controls
Method in brief: as §4

SETVI [24] = experiment: Post-emergence action at 320 g/ha against SETVI; type: in vivo, Setaria viridis; settings: visual rating about 3 weeks after treatment vs untreated controls
Method in brief: as §4

POLCO [25] = experiment: Pre-emergence action at 320 g/ha against POLCO; type: in vivo, Fallopia convolvulus (Polygonum convolvulus); settings: visual scoring after about 3 weeks vs untreated controls
Method in brief: as §3

## COC(=O)C(C)Oc1nn(-c2ccccc2)c(-c2ccnc(Cl)c2)c1Cl (stereo not drawn) [VIII-001]
VERPE [1]
  Pre-emergence action against VERPE: 100%
LOLRI [2]
  Post-emergence action against LOLRI: 90%
ECHCG
  Pre-emergence action against ECHCG: 100%
HORMU
  Post-emergence action against HORMU in %: 80%
VIOTR [3]
  Pre-emergence action against VIOTR in %: 90%
SETVI [4]
  Pre-emergence action against SETVI: 100%
SETVI [5]
  Pre-emergence action against SETVI in %: 100%
AMARE [6]
  Post-emergence action against AMARE: 90%
MATIN [7]
  Pre-emergence action against MATIN: 90%
AMARE [8]
  Pre-emergence action against AMARE: 90%
SETVI [9]
  Post-emergence action against SETVI: 90%
ALOMY
  Post-emergence action against ALOMY: 90%
AMARE [10]
  Pre-emergence action against AMARE in %: 90%
DIGSA [11]
  Pre-emergence action against DIGSA: 90%
DIGSA [12]
  Pre-emergence action against DIGSA in %: 100%
MATIN [13]
  Post-emergence action against MATIN: 90%
POAAN [14]
  Post-emergence action against POAAN: 100%
LOLRI [15]
  Pre-emergence action against LOLRI: 100%
ABUTH
  Post-emergence action against ABUTH: 90%
POAAN [16]
  Pre-emergence action against POAAN: 100%
VIOTR [17]
  Post-emergence action against VIOTR in %: 80%
VERPE [18]
  Post-emergence action against VERPE: 100%
STEME [19]
  Pre-emergence action against STEME: 90%
STEME [20]
  Pre-emergence action at 320 g/ha against STEME in %: 90%
STEME [21]
  Post-emergence action against STEME: 100%
POLCO [22]
  Post-emergence action against POLCO in %: 90%
DIGSA [23]
  Post-emergence action against DIGSA: 90%
AVEFA
  Post-emergence action against AVEFA in %: 80%
SETVI [24]
  Post-emergence action against SETVI in %: 80%
POLCO [25]
  Pre-emergence action against POLCO in %: 90%
